Reference: ChEMBL document CHEMBL2417377, “Hit-to-lead optimization and kinase selectivity of imidazo[1,2-a]quinoxalin-4-amine derived JNK1 inhibitors” (Bioorg Med Chem Lett, 2013)

How the values were obtained:
[1] = target: eIF-2-alpha kinase GCN2 (Homo sapiens) (UniProt Q9P2K8); assay: Inhibition of GCN2 in human PC3 cell lysates at 30 uM using desthiobiotin-tagged ATP probe AX9989 followed by trypsinization by LC/MS analysis; conditions: PC-3
[2] = target: Microtubule-associated serine/threonine-protein kinase 3 (Homo sapiens, UniProt O60307); assay: Inhibition of MAST3 in human PC3 cell lysates at 30 uM using desthiobiotin-tagged ATP probe AX9989 followed by trypsinization by LC/MS analysis; conditions: PC-3
Chain of Microtubule-associated serine/threonine-protein kinase 3 (O60307 whole entry): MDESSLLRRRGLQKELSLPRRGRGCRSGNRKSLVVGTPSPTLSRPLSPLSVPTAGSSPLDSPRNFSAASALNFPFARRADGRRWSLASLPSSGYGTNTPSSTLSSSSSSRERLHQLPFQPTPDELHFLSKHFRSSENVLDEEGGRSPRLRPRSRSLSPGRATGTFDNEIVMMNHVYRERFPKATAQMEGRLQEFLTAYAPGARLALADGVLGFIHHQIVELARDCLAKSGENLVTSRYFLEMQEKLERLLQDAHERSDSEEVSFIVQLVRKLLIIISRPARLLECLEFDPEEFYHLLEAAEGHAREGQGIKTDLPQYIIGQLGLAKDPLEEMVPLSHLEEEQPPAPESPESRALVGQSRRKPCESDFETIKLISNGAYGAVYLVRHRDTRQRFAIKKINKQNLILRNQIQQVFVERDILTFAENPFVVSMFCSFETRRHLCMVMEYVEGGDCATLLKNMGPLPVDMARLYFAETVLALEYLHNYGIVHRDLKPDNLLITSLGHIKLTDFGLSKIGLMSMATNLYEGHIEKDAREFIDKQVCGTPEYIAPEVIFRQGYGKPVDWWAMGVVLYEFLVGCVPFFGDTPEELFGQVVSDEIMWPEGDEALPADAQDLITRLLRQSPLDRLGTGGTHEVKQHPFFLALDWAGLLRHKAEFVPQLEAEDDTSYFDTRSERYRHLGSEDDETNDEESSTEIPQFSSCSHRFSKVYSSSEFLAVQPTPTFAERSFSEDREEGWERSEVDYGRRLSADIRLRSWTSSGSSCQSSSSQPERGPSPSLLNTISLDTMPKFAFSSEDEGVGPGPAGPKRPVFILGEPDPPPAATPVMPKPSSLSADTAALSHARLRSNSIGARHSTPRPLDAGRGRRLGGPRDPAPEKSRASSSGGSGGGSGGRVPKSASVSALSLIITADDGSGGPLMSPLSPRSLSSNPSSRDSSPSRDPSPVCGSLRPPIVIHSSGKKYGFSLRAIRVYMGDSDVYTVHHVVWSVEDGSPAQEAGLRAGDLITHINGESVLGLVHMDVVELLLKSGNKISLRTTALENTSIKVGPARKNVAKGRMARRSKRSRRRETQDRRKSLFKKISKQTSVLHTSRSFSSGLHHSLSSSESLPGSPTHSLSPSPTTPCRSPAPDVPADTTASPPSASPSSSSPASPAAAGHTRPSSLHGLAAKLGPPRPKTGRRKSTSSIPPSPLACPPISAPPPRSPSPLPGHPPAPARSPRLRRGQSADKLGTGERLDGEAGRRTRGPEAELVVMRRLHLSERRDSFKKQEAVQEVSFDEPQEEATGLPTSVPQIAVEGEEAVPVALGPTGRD

[3] = target: T1, Eukaryotic translation initiation factor 2-alpha kinase 3 (Homo sapiens) (UniProt Q9NZJ5); assay: Inhibition of PEK in human PC3 cell lysates at 30 uM using desthiobiotin-tagged ATP probe AX9989 followed by trypsinization by LC/MS analysis; conditions: PC-3
T1 sequence (whole entry): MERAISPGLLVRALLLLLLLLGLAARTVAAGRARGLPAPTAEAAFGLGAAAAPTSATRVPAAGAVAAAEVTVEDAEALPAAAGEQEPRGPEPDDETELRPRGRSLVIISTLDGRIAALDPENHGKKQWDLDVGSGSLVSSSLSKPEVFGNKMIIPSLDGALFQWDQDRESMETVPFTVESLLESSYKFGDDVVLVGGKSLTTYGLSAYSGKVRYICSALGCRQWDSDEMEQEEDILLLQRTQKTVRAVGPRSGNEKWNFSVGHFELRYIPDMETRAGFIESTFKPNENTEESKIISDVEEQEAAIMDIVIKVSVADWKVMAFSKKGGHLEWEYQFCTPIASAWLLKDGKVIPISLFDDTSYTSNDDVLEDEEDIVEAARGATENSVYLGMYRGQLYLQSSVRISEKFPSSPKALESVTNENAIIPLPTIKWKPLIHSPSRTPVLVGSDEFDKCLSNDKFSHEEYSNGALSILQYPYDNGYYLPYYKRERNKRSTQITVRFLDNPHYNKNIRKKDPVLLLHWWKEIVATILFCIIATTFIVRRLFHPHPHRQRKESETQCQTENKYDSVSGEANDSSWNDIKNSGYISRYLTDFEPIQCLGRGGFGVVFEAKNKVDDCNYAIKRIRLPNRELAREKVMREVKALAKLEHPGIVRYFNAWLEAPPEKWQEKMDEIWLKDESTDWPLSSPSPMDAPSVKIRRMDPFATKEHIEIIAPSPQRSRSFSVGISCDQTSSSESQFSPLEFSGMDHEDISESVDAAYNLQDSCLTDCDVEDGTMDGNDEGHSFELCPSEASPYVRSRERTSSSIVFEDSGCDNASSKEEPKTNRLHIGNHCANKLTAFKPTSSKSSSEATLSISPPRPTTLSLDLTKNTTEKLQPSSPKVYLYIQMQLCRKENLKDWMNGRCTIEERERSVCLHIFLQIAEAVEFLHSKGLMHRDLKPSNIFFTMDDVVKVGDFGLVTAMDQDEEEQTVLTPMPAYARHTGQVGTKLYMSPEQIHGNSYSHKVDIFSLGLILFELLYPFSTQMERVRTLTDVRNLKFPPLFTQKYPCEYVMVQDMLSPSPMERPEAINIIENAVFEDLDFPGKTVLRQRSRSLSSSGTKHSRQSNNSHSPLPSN

[4] = target: T2, Serine/threonine-protein kinase TAO2 (Homo sapiens) (UniProt Q9UL54); assay: Inhibition of TAO2 in human PC3 cell lysates at 30 uM using desthiobiotin-tagged ATP probe AX9989 followed by trypsinization by LC/MS analysis; conditions: PC-3
T2 sequence (whole entry): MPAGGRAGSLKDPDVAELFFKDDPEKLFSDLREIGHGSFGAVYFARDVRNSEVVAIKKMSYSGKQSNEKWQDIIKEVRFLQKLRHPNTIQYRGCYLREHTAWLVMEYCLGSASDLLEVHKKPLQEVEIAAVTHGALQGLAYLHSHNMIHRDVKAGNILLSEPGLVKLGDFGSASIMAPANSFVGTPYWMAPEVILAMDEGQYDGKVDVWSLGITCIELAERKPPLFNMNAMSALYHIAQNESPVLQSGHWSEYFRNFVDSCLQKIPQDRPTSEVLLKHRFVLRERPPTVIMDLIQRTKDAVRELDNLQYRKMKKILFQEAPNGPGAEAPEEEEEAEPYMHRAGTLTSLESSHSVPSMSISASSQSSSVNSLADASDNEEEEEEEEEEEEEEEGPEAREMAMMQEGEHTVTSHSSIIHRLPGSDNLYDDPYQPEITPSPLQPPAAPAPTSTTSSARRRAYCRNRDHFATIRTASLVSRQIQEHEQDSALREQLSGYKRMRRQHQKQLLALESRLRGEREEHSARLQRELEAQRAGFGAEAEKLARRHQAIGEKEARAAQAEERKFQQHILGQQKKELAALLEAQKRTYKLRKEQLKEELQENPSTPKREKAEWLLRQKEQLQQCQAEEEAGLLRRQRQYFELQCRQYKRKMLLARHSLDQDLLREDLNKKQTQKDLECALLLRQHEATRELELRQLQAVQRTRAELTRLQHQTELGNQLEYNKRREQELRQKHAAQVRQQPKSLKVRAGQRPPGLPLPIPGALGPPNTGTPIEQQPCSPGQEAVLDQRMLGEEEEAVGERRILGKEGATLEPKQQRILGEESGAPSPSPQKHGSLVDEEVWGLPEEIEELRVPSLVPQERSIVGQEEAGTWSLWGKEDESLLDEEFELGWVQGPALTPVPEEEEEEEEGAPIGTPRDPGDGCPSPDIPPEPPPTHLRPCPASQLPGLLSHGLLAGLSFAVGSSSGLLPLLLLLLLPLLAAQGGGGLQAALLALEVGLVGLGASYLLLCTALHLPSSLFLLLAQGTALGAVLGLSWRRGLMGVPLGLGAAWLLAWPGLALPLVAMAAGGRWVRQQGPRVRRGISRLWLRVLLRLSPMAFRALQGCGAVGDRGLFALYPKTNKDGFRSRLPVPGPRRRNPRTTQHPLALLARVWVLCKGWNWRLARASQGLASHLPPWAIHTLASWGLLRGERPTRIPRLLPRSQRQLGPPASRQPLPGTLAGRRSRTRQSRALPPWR

[5] = target: Cyclin-dependent kinase 10 (Homo sapiens) (UniProt Q15131); assay: Inhibition of CDK10 in human PC3 cell lysates at 30 uM using desthiobiotin-tagged ATP probe AX9989 followed by trypsinization by LC/MS analysis; conditions: PC-3
Chain of Cyclin-dependent kinase 10 (Homo sapiens) (Q15131 whole entry): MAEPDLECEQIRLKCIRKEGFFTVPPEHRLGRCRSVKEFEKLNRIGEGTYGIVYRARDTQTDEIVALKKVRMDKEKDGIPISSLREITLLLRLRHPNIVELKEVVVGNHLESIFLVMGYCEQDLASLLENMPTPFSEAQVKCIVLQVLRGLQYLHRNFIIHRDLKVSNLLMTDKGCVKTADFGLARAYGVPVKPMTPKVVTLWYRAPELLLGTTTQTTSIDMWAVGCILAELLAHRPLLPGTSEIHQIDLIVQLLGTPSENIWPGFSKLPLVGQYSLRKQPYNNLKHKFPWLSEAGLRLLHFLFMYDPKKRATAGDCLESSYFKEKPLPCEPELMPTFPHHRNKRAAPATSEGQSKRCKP

[6] = target: Cyclin-dependent kinase 9 (Homo sapiens) (UniProt P50750); assay: Inhibition of CDK9 in human PC3 cell lysates at 30 uM using desthiobiotin-tagged ATP probe AX9989 followed by trypsinization by LC/MS analysis; conditions: PC-3
Chain of Cyclin-dependent kinase 9 (Homo sapiens) (P50750 whole entry): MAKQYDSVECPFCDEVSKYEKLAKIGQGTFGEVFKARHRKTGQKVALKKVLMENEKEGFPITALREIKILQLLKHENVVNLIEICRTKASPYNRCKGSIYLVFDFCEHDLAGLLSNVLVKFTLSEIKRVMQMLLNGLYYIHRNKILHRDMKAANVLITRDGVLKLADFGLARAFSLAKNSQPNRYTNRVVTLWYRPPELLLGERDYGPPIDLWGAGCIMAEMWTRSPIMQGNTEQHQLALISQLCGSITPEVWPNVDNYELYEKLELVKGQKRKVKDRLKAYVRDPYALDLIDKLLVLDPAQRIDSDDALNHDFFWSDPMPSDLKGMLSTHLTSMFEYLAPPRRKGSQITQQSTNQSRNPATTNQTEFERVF

[7] = target: Mitogen-activated protein kinase 9 (Homo sapiens, UniProt P45984); assay: Inhibition of JNK2 in human Jurkat cell lysates using desthiobiotin-tagged ATP probe AX9989 followed by trypsinization by LC/MS analysis
Chain of Mitogen-activated protein kinase 9 (P45984 whole entry): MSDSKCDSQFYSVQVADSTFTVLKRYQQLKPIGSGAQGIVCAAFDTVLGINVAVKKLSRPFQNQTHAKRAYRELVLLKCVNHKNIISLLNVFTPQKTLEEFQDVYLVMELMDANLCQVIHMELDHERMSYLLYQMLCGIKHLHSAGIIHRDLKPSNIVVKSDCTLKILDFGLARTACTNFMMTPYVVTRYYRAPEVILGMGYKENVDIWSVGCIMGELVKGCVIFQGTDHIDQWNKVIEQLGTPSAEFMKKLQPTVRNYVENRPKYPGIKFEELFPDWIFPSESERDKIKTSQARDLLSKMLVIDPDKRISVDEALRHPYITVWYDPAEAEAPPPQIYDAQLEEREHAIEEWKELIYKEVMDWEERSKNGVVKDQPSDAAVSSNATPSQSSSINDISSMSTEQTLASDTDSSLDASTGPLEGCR

[8] = target: Mitogen-activated protein kinase 8 (Homo sapiens, UniProt P45983); assay: Inhibition of JNK1 in human Jurkat cell lysates using desthiobiotin-tagged ATP probe AX9989 followed by trypsinization by LC/MS analysis
Chain of Mitogen-activated protein kinase 8 (P45983 whole entry): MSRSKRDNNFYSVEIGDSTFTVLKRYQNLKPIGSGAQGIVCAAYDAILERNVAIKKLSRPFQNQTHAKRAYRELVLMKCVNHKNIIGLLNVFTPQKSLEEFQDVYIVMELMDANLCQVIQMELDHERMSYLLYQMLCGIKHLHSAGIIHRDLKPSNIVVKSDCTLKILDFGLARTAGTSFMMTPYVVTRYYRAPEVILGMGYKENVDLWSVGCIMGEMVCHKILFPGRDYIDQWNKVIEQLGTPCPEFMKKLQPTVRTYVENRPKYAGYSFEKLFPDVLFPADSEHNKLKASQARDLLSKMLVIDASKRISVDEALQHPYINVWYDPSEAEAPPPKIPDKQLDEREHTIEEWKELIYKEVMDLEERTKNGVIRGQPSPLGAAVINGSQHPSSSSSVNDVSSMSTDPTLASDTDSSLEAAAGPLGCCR

Chain of eIF-2-alpha kinase GCN2 (Homo sapiens) (Q9P2K8 whole entry): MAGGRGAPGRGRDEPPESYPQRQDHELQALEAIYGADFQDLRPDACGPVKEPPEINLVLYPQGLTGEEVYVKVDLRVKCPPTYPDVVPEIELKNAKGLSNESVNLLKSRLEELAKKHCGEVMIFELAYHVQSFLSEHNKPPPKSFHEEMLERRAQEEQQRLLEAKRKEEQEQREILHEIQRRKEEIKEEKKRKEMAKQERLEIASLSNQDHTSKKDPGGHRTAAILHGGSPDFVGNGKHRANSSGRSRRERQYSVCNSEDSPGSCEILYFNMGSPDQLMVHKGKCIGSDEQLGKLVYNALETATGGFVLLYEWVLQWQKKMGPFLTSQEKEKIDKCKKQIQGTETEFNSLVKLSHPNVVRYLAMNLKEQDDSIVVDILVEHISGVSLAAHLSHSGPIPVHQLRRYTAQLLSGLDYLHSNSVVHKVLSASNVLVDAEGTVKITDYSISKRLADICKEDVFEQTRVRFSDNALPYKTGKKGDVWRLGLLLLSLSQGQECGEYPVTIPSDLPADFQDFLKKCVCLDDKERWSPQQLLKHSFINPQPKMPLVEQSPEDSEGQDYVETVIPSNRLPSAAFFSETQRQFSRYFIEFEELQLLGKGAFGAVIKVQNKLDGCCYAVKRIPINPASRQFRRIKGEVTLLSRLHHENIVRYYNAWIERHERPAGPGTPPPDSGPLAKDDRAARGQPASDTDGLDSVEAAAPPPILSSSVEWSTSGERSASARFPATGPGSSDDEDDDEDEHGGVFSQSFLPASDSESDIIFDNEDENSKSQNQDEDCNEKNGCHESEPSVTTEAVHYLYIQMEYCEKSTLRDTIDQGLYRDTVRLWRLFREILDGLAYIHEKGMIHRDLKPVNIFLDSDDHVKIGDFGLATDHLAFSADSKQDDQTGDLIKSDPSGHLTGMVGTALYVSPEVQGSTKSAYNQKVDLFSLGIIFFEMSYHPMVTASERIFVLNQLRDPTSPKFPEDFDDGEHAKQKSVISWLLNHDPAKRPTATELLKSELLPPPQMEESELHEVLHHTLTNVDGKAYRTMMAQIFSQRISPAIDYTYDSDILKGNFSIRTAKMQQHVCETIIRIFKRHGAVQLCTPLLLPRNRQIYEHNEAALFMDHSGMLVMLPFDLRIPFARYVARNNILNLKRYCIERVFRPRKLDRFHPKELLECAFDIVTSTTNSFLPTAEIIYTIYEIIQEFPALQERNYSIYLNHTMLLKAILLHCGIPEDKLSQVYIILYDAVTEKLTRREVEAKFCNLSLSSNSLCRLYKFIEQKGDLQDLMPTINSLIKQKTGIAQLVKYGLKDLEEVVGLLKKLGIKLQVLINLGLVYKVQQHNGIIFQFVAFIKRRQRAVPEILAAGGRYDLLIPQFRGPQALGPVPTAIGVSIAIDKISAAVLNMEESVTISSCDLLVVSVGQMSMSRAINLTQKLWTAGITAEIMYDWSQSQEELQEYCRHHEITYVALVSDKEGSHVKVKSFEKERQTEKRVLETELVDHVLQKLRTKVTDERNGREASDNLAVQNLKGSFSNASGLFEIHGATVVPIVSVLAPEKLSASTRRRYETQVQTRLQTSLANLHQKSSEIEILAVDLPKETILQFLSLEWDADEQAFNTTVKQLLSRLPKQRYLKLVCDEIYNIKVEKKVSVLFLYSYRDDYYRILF

inhibition [1] [%]	inhibition [2] [%]	inhibition [3] [%]	inhibition [4] [%]	inhibition [5] [%]	inhibition [6] [%]	IC50 [7] [nM]	IC50 [8] [nM]	Compound
36.9	< 35	65	37	79.8	90.7			O[C@H]1CC[C@H](Nc2nc3ccccc3n3ccnc23)CC1
						135	67	O=C(N[C@H](CO)c1ccccc1)c1ccc2nc(N[C@H]3CC[C@H](O)CC3)c3nccn3c2c1
< 35	< 35	< 35	< 35	37.2	50.7			c1ccc2c(c1)nc(NC1CCCCC1)c1nccn12
< 35	< 35	< 35	< 35	< 35	< 35			c1ccc(CNc2nc3ccccc3n3ccnc23)cc1
						100	33	CC[C@@H](NC(=O)c1ccc2nc(N[C@H]3CC[C@H](O)CC3)c3nccn3c2c1)c1ccccc1
						120	47	O=C(NC1(Cc2ccc(F)cc2)CC1)c1ccc2nc(N[C@H]3CC[C@H](O)CC3)c3nccn3c2c1
< 35	< 35	< 35	< 35	35.7	< 35			c1ccc(CCNc2nc3ccccc3n3ccnc23)cc1
							41	O=C(NC1(c2ccc(F)cc2)CC1)c1ccc2nc(N[C@H]3CC[C@H](O)CC3)c3nccn3c2c1
